Experimental data: BindingDB's records for doi:10.1016/j.bmc.2007.06.041 (Seoul National University, 2007)
pKi: −log10 of the molar value.

Target: Transient receptor potential cation channel subfamily V member 1 (Rattus norvegicus, UniProt O35433)
Test: Competition Binding Assay and Inhibition of Ca2+ Uptake Assay
Details: pH 7.4; 37 °C
Protocol: Binding assay mixtures were set up and contained [3H] RTX, various concentrations of competing ligands, and rVR1-transfected CHO cells. Nonspecific binding was determined in the presence of 100 nM nonradioactive RTX. After the binding reaction, membrane-bound RTX was separated from the free by centrifugation, and the radioactivity was determined by scintillation counting. Equilibrium binding parameters (Ki, Bmax, and cooperativity) were determined by fitting the Hill equation to the measured values with the aid of the program Origin 6.0.

Transient receptor potential cation channel subfamily V member 1, sequence (O35433 whole entry): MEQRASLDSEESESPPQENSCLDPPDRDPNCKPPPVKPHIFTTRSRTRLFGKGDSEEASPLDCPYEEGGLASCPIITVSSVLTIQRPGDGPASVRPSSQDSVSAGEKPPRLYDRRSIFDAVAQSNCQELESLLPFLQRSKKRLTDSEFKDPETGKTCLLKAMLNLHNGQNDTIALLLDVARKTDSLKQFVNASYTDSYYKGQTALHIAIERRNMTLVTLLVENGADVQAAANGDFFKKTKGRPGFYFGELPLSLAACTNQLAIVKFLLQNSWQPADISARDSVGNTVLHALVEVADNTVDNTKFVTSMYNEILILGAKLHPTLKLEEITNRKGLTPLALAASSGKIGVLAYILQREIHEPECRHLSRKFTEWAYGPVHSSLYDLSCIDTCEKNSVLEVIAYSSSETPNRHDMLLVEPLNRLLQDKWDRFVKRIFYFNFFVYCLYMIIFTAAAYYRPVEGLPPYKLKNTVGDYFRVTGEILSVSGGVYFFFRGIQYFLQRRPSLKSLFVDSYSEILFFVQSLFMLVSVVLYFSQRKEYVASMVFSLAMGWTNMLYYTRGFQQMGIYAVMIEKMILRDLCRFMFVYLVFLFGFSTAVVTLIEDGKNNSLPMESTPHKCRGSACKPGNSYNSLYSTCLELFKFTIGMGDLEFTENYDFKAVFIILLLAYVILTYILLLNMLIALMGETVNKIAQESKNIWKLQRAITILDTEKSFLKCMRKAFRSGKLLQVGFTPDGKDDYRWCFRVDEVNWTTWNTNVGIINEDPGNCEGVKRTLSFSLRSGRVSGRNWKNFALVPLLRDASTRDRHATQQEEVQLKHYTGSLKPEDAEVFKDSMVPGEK

Structure (SMILES) | pKi
C[C@@H](NC(=S)NCc1ccc(C(C)(C)C)cc1)c1ccc(NS(C)(=O)=O)c(F)c1 [3-[(4-tert-butylphenyl)methyl]-1-[(1R)-1-(3-fluoro-4-methanesulfonamidophenyl)ethyl]thiourea] | 7.43
C[C@H](NC(=S)NCc1ccc(C(C)(C)C)cc1)c1ccc(NS(C)(=O)=O)c(F)c1 [3-[(4-tert-butylphenyl)methyl]-1-[(1S)-1-(3-fluoro-4-methanesulfonamidophenyl)ethyl]thiourea] | 5.57
Oc1cc2c(cc1O)CN(C(=S)NCCc1ccc(Cl)cc1)CCC2 [N-[2-(4-chlorophenyl)ethyl]-7,8-dihydroxy-2,3,4,5-tetrahydro-1H-2-benzazepine-2-carbothioamide] | 6.28
CC(C)(C)c1ccc(CNC(=S)NCc2ccc(NS(C)(=O)=O)c(F)c2)cc1 [JYL1421] | 8.04
C[C@@H](NC(=S)NCc1ccc(C(C)(C)C)cc1)c1ccc(NS(C)(=O)=O)cc1 [3-[(4-tert-butylphenyl)methyl]-1-[(1R)-1-(4-methanesulfonamidophenyl)ethyl]thiourea] | 8.35
CC(NC(=S)NCc1ccc(C(C)(C)C)cc1)c1ccc(NS(C)(=O)=O)cc1 (configuration not stated) [3-[(4-tert-butylphenyl)methyl]-1-[1-(4-methanesulfonamidophenyl)ethyl]thiourea] | 7.83
CC(C)(C)c1ccc(CNC(=S)NC(C)(C)c2ccc(NS(C)(=O)=O)cc2)cc1 [3-[(4-tert-butylphenyl)methyl]-1-[2-(4-methanesulfonamidophenyl)propan-2-yl]thiourea] | 5.74
CC(C)(C)c1ccc(CNC(=S)NC(Cc2ccccc2)c2ccc(NS(C)(=O)=O)c(F)c2)cc1 (configuration not stated) [3-[(4-tert-butylphenyl)methyl]-1-[1-(3-fluoro-4-methanesulfonamidophenyl)-2-phenylethyl]thiourea] | 6.15
COc1cc(C(C)(C)NC(=S)NCc2ccc(C(C)(C)C)cc2)ccc1NS(C)(=O)=O [3-[(4-tert-butylphenyl)methyl]-1-[2-(4-methanesulfonamido-3-methoxyphenyl)propan-2-yl]thiourea] | 6.18
CC(C)(C)c1ccc(CNC(=S)NC(c2ccccc2)c2ccc(NS(C)(=O)=O)c(F)c2)cc1 (configuration not stated) [3-[(4-tert-butylphenyl)methyl]-1-[(3-fluoro-4-methanesulfonamidophenyl)(phenyl)methyl]thiourea] | 6.07
CC(C)(C)c1ccc(CNC(=S)NC2(c3ccc(NS(C)(=O)=O)cc3)CC2)cc1 [1-[(4-tert-butylphenyl)methyl]-3-[1-(4-methanesulfonamidophenyl)cyclopropyl]thiourea] | 7.22
CC(C)(C)c1ccc(CNC(=S)NC(C)(C)c2ccc(NS(C)(=O)=O)c(F)c2)cc1 [3-[(4-tert-butylphenyl)methyl]-1-[2-(3-fluoro-4-methanesulfonamidophenyl)propan-2-yl]thiourea] | 6.01
CC(NC(=S)NCc1ccc(C(C)(C)C)cc1)c1ccc(NS(C)(=O)=O)c(F)c1 (configuration not stated) [3-[(4-tert-butylphenyl)methyl]-1-[1-(3-fluoro-4-methanesulfonamidophenyl)ethyl]thiourea] | 8.04
CC(C)C(NC(=S)NCc1ccc(C(C)(C)C)cc1)c1ccc(NS(C)(=O)=O)c(F)c1 (configuration not stated) [3-[(4-tert-butylphenyl)methyl]-1-[1-(3-fluoro-4-methanesulfonamidophenyl)-2-methylpropyl]thiourea] | 6.65
COc1cc(C(C)NC(=S)NCc2ccc(C(C)(C)C)cc2)ccc1NS(C)(=O)=O (configuration not stated) [3-[(4-tert-butylphenyl)methyl]-1-[1-(4-methanesulfonamido-3-methoxyphenyl)ethyl]thiourea] | 7.54
CCC(NC(=S)NCc1ccc(C(C)(C)C)cc1)c1ccc(NS(C)(=O)=O)c(F)c1 (configuration not stated) [3-[(4-tert-butylphenyl)methyl]-1-[1-(3-fluoro-4-methanesulfonamidophenyl)propyl]thiourea] | 7.27
COc1cc(C2(NC(=S)NCc3ccc(C(C)(C)C)cc3)CC2)ccc1NS(C)(=O)=O [1-[(4-tert-butylphenyl)methyl]-3-[1-(4-methanesulfonamido-3-methoxyphenyl)cyclopropyl]thiourea] | 6.61
